Data taken from US20130230458A1, “Cell Permeable Inhibitors of Anaphase Promoting Complex” (PRESIDENT AND FELLOWS OF HARVARD COLLEGE, priority 2010, published 2013).
Where a SMILES comes first, the peptide text is derived from it. The star is where a group is joined. Cbz = O=C(OCc1ccccc1)*

Key:
HeLa H2B-GFP cells [1] = test: Live cell imaging of mitotic duration and cell fate; assay type: cell-based, human
Protocol: Detailed siRNA transfection and drug treatment schemes are described in supplemental experimental procedures. HeLa H2B-GFP cells were plated in DMEM with 10% FBS at 20% confluence. […] Live cell imaging was performed at 12 minute intervals on a Nikon TE2000E PFS inverted microscope fitted with an incubation chamber maintained at 37° C. and supplied with 5% CO2. Cell division was tracked by manual inspection of movies, and mitotic duration was measured as the time between the first frame of chromosome condensation and the frame of chromosome segregation (anaphase), decondensation (mitotic exit without anaphase) or cell death (chromosomes shrinking to a small bright dot).
The imaging plate was mounted onto a motorized stage (Prior ProScan II) on a Nikon TE2000E PFS inverted microscope fitted with an incubation chamber maintained at 37° C. and supplied with 5% CO2. […] TIFF files of each image were exported from Elements and used to build stacks and Quicktime movies with Metamorph imaging software (Molecular Devices). For manual analysis, mitotic duration is counted as the time between the first frame of chromosome condensation and the frame of chromosome segregation (anaphase) or decondensation (mitotic exit in the presence of nocodazole) or cell death (chromosomes shrinking to a small bright dot).
HeLa H2B-GFP cells were plated in a 24-well plate in DMEM 10% FBS at 20% confluence one day prior to experiment and synchronized by double thymidine block as described above. […] Live cell imaging was set up as described above.
HeLa H2B-GFP cells were plated in a 24-well plate in DMEM+10% FBS at 20% confluence one day prior to the experiment and synchronized by double thymidine block as described above. The cells were released from the first thymidine block into 200 μl OptiMem without FBS. Transfection was performed immediately after the first thymidine release. […] The two mixtures were left at room temperature for 5 min before being mixed together and incubated for additional 20 min and then added to the cells to a final volume of 250 μl. 4 h after transfection, 250 μl of DMEM+20% FBS were added to cells.
HeLa H2B-GFP cells were plated in glass-bottom 24-well plates at 20% confluence one day prior to the experiment and synchronized by double thymidine block as described above. […] Cells were treated with 100 nM Hesperadin or DMSO 8 h after release from the second thymidine block and live cell imaging was set up as described above.
HeLa H2B-GFP cells were plated in a 24-well plate in DMEM+10% FBS at 20% confluence one day prior to experiment and synchronized by double thymidine block as synchronized above. […] Live cell imaging was set up as described above.
HeLa H2B-GFP cells were plated in a 24-well plate in DMEM+10% FBS at 20% confluence one day prior to experiment and synchronized by double thymidine block as described above. […] Untreated cells were used as the control. Live cell imaging was set up as described above. […] Alternatively, at 10 h after release from the second block, 10 μM MG132 with or without 25 μg/ml cycloheximide was added to the cells. […] Live cell imaging was set up as described above.
HeLa H2B-GFP cells were plated in a 24-well plate in DMEM+10% FBS at 20% confluence one day prior to experiment and synchronized by double thymidine block as described above. Mad2 siRNA transfection was performed as described above. At 10 h after release from the second block, 10 μM MG132 with or without 25 μg/ml cycloheximide was added to the cells. Live cell imaging was set up as described above. Manual analysis was focused only on cells that entered mitosis after MG132 addition.

HeLa cells = test: Live imaging of HeLa cells expressing Histone 2B-GFP (Examples 1 and 2); assay type: cell-based, human; details: 3 μM MG132
Text: Cumulative frequency curves of mitotic duration were plotted.
The same experiment in 1B was done with proAAME.
Synchronized HeLa cells were transfected with Mad2/control siRNA followed by drug treatments. Cumulative frequency curves of mitotic duration were plotted.
Asynchronous HeLa cells were transfected with Mad2 or control siRNA.
For comparison, the curves obtained in H2B-GFP fluorescent imaging experiment shown in FIG. 1B were plotted on the same graph.

HeLa H2B-GFP cells [2] = test: Chromosome congression analysis; assay type: cell-based, human
Protocol: HeLa H2B-GFP cells were plated in 35 mm glass-bottom dishes (MatTek) in DMEM+10% FBS at 20% confluence one day prior to the experiment and synchronized by double thymidine block as described above. Drugs were added as follows to a final volume of 3 ml from 2× concentrated preparation in culture medium. DMSO (0.06%), proTAME (3 and 12 μM) or 10 nM Nocodazole were added 8 h after release from the second block, while MG132 (10 μM) was added at 10 h. H2B-GFP was imaged for 4 hrs every 3 min at 40× magnification as described above.

HeLa H2B-GFP cells [3] = assay type: cell-based, human; details: double thymidine synchronized, drugs 10 hrs after release; proTAME 3 μM; MG132 concentration not given
Protocol: To determine whether proTAME treatment can enhance mitotic arrest and cell death induced by taxol or a proteasome inhibitor (MG132), HeLa H2B-GFP cells were co-treated with low doses of the microtubule poison Taxol or the proteasome inhibitor MG132 in combination with a low dose of proTAME.
Unsychronized HeLa H2B-GFP cells were treated with DMSO (control), taxol 10 nM or proTAME 3 μM or a combination of Taxol 10 nM and proTAME 3 μM (FIG. 26). The cells were imaged by FITC fluorescence microscopy to monitor the cell cycle and mitotic events.
To analyze interactions between proTAME and a proteasome inhibitor (FIG. 27), HeLa H2B-GFP cells were synchronized by double thymidine block (2 mM thymidine block for 18 hrs, release in medium for 8 hrs 2 mM thymidine block for 18 hrs), and treated with the drugs 10 hrs after release from the block as the cells just entered mitosis.

APC = target: T1, APC (Homo sapiens, UniProt P30260); test: Cdc20/Cdh1 binding assay in HeLa cells; assay type: cell-based; details: 12 μM, HeLa released from nocodazole block
T1 construct: endogenous in cells; host or cells: HeLa cells (synchronised; in some experiments also Mad2/BubR1 siRNA and cyclin B1Δ107 adenovirus)
Protocol: HeLa cells in DMEM 10% FBS were plated in T25 flasks at 20% confluence one day prior to the experiment. They were then synchronized by a double thymidine block (18 h for the first block, 8 h release and another 18 h for the second block, thymidine concentration: 2 mM). For analysis of Cdh1 binding, cells were released into […] from the second thymidine block for 13 h and then washed into fresh medium. Six h later, cells were treated with 12 μM proTAME or […] or 0.06% DMSO for 2 h and then collected by trypin digrestion. For analysis of Cdc20 binding, cells were transfected with indicated siRNAs during the first release from thymidine block after two washes with DPBS (CellGro 21-030-CV) and addition of 6.3 ml OptiMEM. A volume (79 μl) of 20 μl Control siRNA#3 or a 1:1 mix of 20 μl MAD2 siRNA and BubR1 siRNA (Dharmacon D-004101-01, 5′-[…]-3′ (SEQ ID NO: 11)) was mixed in 1381 μl OptiMEM in a tube, 23.7 μl OligoFectamine were mixed with 94.1 μl OptiMEM in a second tube. After 5 min incubation at RT, the tubes contents were mixed and siRNA-reagent complexes were allowed to form for 20 min at RT. The transfection mixes were added to cells in OptiMEM and FBS was added to 10% after 5 h transfection. Cyclin B1-4107 expressing adenovirus (1:100) was added at the start of the second thymidine block and kept in the medium for all subsequent steps. […]

cyclin B1-GFP = test: Exogenous cyclin-GFP expression, live-cell imaging and quantitation (cyclin B1-GFP); assay type: cell-based, human; details: HeLa H2B-RFP; 20 μM proTAME or proAAME, 150 nM nocodazole
Protocol: (§1) HeLa H2B-RFP cells were transduced with cyclin B1-GFP or cyclin A2-GFP adenovirus for 40 h. Phenol Red-Free DMEM (Mediatech) supplemented with 10% FBS and 1:100 Penicillin-Streptomycin-Glutamine (Mediatech) was used as imaging medium. 20 μM proTAME, […] or 150 nM nocodazole was added 45 min prior to the start of imaging. Live cell imaging was set up as described above except that the cells were plated in an 8-well chambered coverglasses (NUNC Lab-tek 155411). Four positions per treatment group were imaged with DIC transmitted light, red fluorescence, and green fluorescence (Semrock GFP/HcRed “Pinkel” filter set) at 12 min intervals for 24 h. Stacks of red and green fluorescence were merged, saved as AVI video files and analyzed using ImageJ. For quantitation, the first GFP-positive cells that undergo mitosis in three separate movies were chosen, giving at least 30 cells quantitated for each treatment group. Mean intensity values for the green channel were collected for a cytoplasmic region of a cell upon mitotic entry, mitotic exit, or after 1 h of mitotic arrest. At the same time points, background mean green intensity was determined and individually subtracted from the cytoplasmic mean intensity. This background corrected mean intensity value was then used to determine the percentage of the original GFP signal remaining at the completion of division (for the control cells) or after 1 h of mitotic arrest (for the nocodazole and proTAME treated cells). The average values for all quantitated cells were plotted with the error bars representing standard error of the mean.

cyclin A2-GFP = test: Exogenous cyclin-GFP expression, live-cell imaging and quantitation (cyclin A2-GFP); assay type: cell-based, human; details: HeLa H2B-RFP; 20 μM proTAME or proAAME, 150 nM nocodazole
Protocol: as §1

hTERT-RPE1 H2B-GFP cells = test: Live cell imaging of mitotic duration in hTERT-RPE1 cells; assay type: cell-based
Protocol: FIG. 18A is a graph and table showing that proTAME induces a mitotic delay in hTERT-RPE1 H2B-GFP cells. Asynchronous hTERT-RPE1 H2B-GFP cells were treated with 0.06% DMSO, 6 μM proTAME or 12 μM proAAME. Cells were imaged at 12 min interval. Cumulative frequency curves of mitotic duration and cell fate distribution are shown.
The imaging plate was mounted onto a motorized stage (Prior ProScan II) on a Nikon TE2000E PFS inverted microscope fitted with an incubation chamber maintained at 37° C. and supplied with 5% CO2. A 20× Plan Apo 0.75 NA or 40× Plan Fluor 0.75 NA objective lens was used as indicated and images were collected with 2×2 binning DIC or GFP fluorescent images were taken every 12 min (unless otherwise specified) for 36 h with a Hamamatsu ORCA cooled CCD camera and Nikon Elements Software. TIFF files of each image were exported from Elements and used to build stacks and Quicktime movies with Metamorph imaging software (Molecular Devices). For manual analysis, mitotic duration is counted as the time between the first frame of chromosome condensation and the frame of chromosome segregation (anaphase) or decondensation (mitotic exit in the presence of nocodazole) or cell death (chromosomes shrinking to a small bright dot).

[4] = proTAME 12 μM, MG132 10 μM, Nocodazole 10 nM
[5] = 12 μM, double thymidine synchronized, added 8 h after release
[6] = asynchronous hTERT-RPE1 H2B-GFP, proAAME 12 μM, proTAME 6 μM

T1 sequence (P30260 whole entry): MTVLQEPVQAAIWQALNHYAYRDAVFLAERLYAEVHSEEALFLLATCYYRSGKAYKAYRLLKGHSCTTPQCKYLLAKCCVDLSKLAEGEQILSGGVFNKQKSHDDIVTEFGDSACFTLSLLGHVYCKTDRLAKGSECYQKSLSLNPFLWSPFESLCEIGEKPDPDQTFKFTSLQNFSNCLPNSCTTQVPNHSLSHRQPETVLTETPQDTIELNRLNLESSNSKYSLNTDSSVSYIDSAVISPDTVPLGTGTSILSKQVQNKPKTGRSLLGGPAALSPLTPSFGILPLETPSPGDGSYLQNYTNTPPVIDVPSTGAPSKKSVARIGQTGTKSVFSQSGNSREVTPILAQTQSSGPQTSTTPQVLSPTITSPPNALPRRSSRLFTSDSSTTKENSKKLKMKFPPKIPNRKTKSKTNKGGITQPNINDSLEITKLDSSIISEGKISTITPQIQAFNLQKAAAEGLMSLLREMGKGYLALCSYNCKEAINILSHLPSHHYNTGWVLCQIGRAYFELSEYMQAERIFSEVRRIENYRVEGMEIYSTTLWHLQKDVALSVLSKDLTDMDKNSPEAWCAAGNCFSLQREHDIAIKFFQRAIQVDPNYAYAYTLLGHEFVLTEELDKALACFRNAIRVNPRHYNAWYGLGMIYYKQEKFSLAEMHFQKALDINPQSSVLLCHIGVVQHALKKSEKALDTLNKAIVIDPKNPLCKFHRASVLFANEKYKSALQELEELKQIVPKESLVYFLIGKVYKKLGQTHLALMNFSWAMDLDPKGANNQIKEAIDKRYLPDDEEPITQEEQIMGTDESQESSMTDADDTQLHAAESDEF

Compound	Cells that exited mitosis during the 30 h experiment (HeLa H2B-GFP cells [1]; 3 μM MG132, control cells) [%]	Time a normal-appearing metaphase plate is maintained (HeLa H2B-GFP cells [1]; MG132 alone)	Mad2-dependence of mitotic arrest (HeLa cells)	Delay in chromosome congression (in words) (HeLa H2B-GFP cells [2]; 3 μM proTAME or 10 μM MG132)	Average chromosome congression time (prophase to full metaphase congression) (HeLa H2B-GFP cells [2]; [4]) [min]	Median chromosome congression time (prophase to full metaphase congression) (HeLa H2B-GFP cells [2]; [4]) [min]	Median mitotic delay / arrest (HeLa H2B-GFP cells [3]) [min]	Cdh1 association with the APC in G1 cells (APC)	Average cyclin B1-GFP intensity remaining at 60 min vs onset of mitosis (cyclin B1-GFP) [fraction remaining]	Median cyclin B1-GFP intensity remaining at 60 min vs onset of mitosis (cyclin B1-GFP) [fraction remaining]	Mitotic phenotype (HeLa H2B-GFP cells [1]; 12 μM)	Average mitotic duration (HeLa H2B-GFP cells [1]; [5]) [min]	Median mitotic duration (HeLa H2B-GFP cells [1]; [5]) [min]	Average cyclin A2-GFP intensity remaining at 60 min vs onset of mitosis (cyclin A2-GFP) [fraction remaining]	Median cyclin A2-GFP intensity remaining at 60 min vs onset of mitosis (cyclin A2-GFP) [fraction remaining]	Average mitotic duration (hTERT-RPE1 H2B-GFP cells; [6]) [min]	Median mitotic duration (hTERT-RPE1 H2B-GFP cells; [6]) [min]	Median mitotic duration (hTERT-RPE1 H2B-GFP cells; proAAME-treated hTERT-RPE1 cells) [min]
CC(C)C[C@@H](C=O)NC(=O)[C@H](CC(C)C)NC(=O)[C@H](CC(C)C)NC(=O)OCc1ccccc1 [MG132, reference compound] (Cbz-Leu-Leu-Leu-aldehyde)	10	over 5 h	partially dependent on Mad2	no delay in chromosome congression	21.6	21	276	–	–	–	–	–	–	–	–	–	–	–
COC(=O)[C@H](CC(C)N=C(NC(=O)OCOC(=O)Cc1ccccc1)NC(=O)OCOC(=O)Cc1ccccc1)NC(C)=O (stereo partly drawn) [proAAME, methyl(S)-2-(acetyl)amino-4-[[bis[[[[(phenylacetyl)oxy]methoxy]carbonyl]amino]methylene]amino]pentanoate]	–	–	–	–	–	–	–	did not	0.15	0.15	no effect	100.5	84	0.08	0.06	32.1	36	24
